Measured values as given in PubChem BioAssay AID463204 (Broad Institute, 2010).
The source made the active and inactive calls.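 Rule for the calls: active = AC50 no more than ten times the top concentration tested, that is within one log above it; inconclusive = flat curve fit with activity between 30% and 70%, or invalid poor fit; inactive = AC50 beyond ten times the top tested dose.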

These compounds were tested on S. cerevisiae Mot1-301 ts growth rescue, BacTiter-Glo ATP luminescence (assay: restored Mot1-301 yeast growth at 38.5C – whole organism, S. cerevisiae, Mot1-301 ts mutant, luminescence, dose retest, SUMOylation pathway inhibitor project, confirmation (AID 463204);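 note: growth at restrictive 38.5 degrees C of Mot1-301 OY566 strain; actives raise luminescence by restoring growth of the ts mutant at high temperature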).
In the case of COc1c(C)cc(S(=O)(=O)NC2CC(C)(C)NC(C)(C)C2)c(C)c1C, the AC50 is reported as > 42 µM (inactive).
Cc1nn(C)c(C)c1/C=N/NC(=O)C(C)(C)Oc1ccc(Cl)cc1 was tested, and the AC50 was > 42 µM (inactive).
For CCN1CCCC1CN(Cc1cc2ccc(C)cc2[nH]c1=O)C(=S)Nc1ccc(OC)cc1OC (stereo not given), the AC50 was > 42 µM (inactive).
For Cc1cc(C)n2c(SCC(C)C)nnc2n1, the AC50 was > 42 µM (inactive).
C=CCN1C(=O)/C(=C2/Sc3ccc(OC)cc3N2C)SC1=Nc1ccccc1 was tested, and the AC50 was > 42 µM (inactive).
CCCC(=O)Nc1ccc(Sc2ccc([N+](=O)[O-])cc2)cc1 showed an AC50 of 30.9 µM.
For CCn1c(=O)n(CC)c2cc(NC(=O)c3ccccc3Cl)ccc21, the AC50 was > 42 µM (inactive).
For CN(C)C(=O)CNC(=O)C1CCCCC1, the AC50 was > 42 µM (inactive).
With COc1ccccc1CNC(=O)CCC(=O)Nc1nnc(C(C)C)s1 the AC50 was > 42 µM (inactive).
For Cc1ccc(NC(=O)Nc2cccc(C(F)(F)F)c2)nc1, the AC50 was > 42 µM (inactive).
For COc1ccc(N2C(=O)CSC23CCCCC3)cc1, the AC50 was > 42 µM (inactive).
In the case of COc1ccc(-c2cc(CC3(C(=O)O)CCN(C(=O)OC(C)(C)C)CC3)on2)c(OC)c1, the AC50 is reported as > 42 µM (inactive).
For Cc1cc(C)n(-c2ccc(C(=O)C(C#N)c3nc4ccccc4n3C)cc2)n1 (stereo not given), the AC50 was > 42 µM (inactive).
For CN(C)C(=O)CCN1CCOCC1, the AC50 was > 42 µM (inactive).
In the case of CC(C)(C)NC(=O)CN(C(=O)CCC(=O)Nc1nccs1)c1ccc2c(c1)OCCO2, the AC50 is reported as > 42 µM (inactive).
In the case of C=CCC(NCCCO)c1cccc(OC)c1OC (stereo not given), the AC50 is reported as > 42 µM (inactive).
For CCn1c(C)c(C(C)=O)c(N2CCN(c3ccc(F)cc3)CC2)nc1=S, the AC50 was > 42 µM (inactive).
For CCCn1c(=O)c2ccccc2n2c(SCC(=O)N3CCc4ccccc4C3)nnc12, the AC50 was > 42 µM (inactive).
CC(Oc1ccccc1[N+](=O)[O-])C(=O)N/N=C/c1ccoc1 (stereo not given) was tested, and the AC50 was > 42 µM (inactive).
CC(NC(=O)OCc1ccccc1)C(=O)N1CC(O)CC1C(=O)O (stereo not given) was tested, and the AC50 was > 21 µM (inactive).
For COc1ccccc1N1C(=O)c2ccccc2NC1C(OC)OC (stereo not given), the AC50 was > 42 µM (inactive).
O=C(CSc1ncn[nH]1)Nc1cccc(S(=O)(=O)N2CCCCCC2)c1 was tested, and the AC50 was > 42 µM (inactive).
With O=C(O)COc1ccc(=O)n(-c2ccccc2)n1 the AC50 was > 42 µM (inactive).
With CC1(C)Cc2c(c(N3CCCC3)nc3sc4c(N5CCN(CCO)CC5)ncnc4c23)CO1 the AC50 was > 42 µM (inactive).
For Cc1ccc(S(=O)(=O)Oc2ccc(/C=C3\N=C(c4cccc(C)c4)OC3=O)cc2)cc1, the AC50 was > 42 µM (inactive).
In the case of CC(C)NC(=O)CCCc1cn(C)c2ccccc12, the AC50 is reported as > 42 µM (inactive).
With Cc1cc(C(F)(F)F)c(C#N)c(=O)[nH]1 the AC50 was > 42 µM (inactive).
Cc1ccc(-c2[nH]ncc2CNCCc2cnn(-c3ccccc3)c2)cc1C was tested, and the AC50 was > 42 µM (inactive).
Cc1ccc(NC(=O)CC2CS(=O)(=O)CC2CC(=O)Nc2ccc(C)c(C)c2)cc1C (stereo not given) was tested, and the AC50 was > 42 µM (inactive).
For CCCCn1c(N)c(N(CCOC)C(=O)c2ccc(Cl)c(S(=O)(=O)N3CCCCC3)c2)c(=O)[nH]c1=O, the AC50 was > 42 µM (inactive).
With CC(C)C(=O)Nc1ccc(-c2nc3cccnc3o2)cc1 the AC50 was > 42 µM (inactive).
With OCC[C@@H]1C[C@H](O)[C@@H](O)[C@]2(CCc3ccccc3CO2)O1 the AC50 was > 42 µM (inactive).
O=C(O)CCC(=O)N1N=C(c2c(-c3ccccc3)c3cc(Cl)ccc3[nH]c2=O)CC1c1ccco1 (stereo not given) was tested, and the AC50 was > 42 µM (inactive).
With CCCSc1nnc(NC(=O)CSc2sc3c(O)cc(=O)[nH]c3c2C#N)s1 the AC50 was > 42 µM (inactive).
For Cc1ccc(S(=O)(=O)NNC(=O)c2cc3cc4ccccc4nc3s2)cc1, the AC50 was > 42 µM (inactive).
For Cc1nnc(C)n1/N=C/c1cc2ccccc2nc1Cl, the AC50 was > 42 µM (inactive).
Compound C=CCNc1nnc(SC2CC(=O)N(c3ccc(OCCC)cc3)C2=O)s1 (stereo not given) has an AC50 of 4.49 µM.
Cc1ccc(S(=O)(=O)NC2CCCCCCC2)cc1 gave an AC50 of 18.1 µM.
O=C(COC(=O)C1CC(=O)N(Cc2ccccc2)C1)Nc1ccccc1F (stereo not given) was tested, and the AC50 was > 21 µM (inactive).
For Cc1nn(-c2ccccc2)c(N)c1N=Nc1cccc(S(=O)(=O)N2CCOCC2)c1, the AC50 was > 42 µM (inactive).
CC(C)CCOCc1nc2sc3c(c2c(=O)[nH]1)CCC(C)C3 (stereo not given) was tested, and the AC50 was > 42 µM (inactive).
For CC(C)Oc1ccc(CCC(=O)NNC(=O)c2ccccc2C(=O)O)cc1, the AC50 was > 42 µM (inactive).
With COC(=O)C(NC(C)=O)(Nc1nc2ccc(S(C)(=O)=O)cc2s1)C(F)(F)F (stereo not given) the AC50 was > 42 µM (inactive).
For CCS(=O)c1ccccc1C(=O)O (stereo not given), the AC50 was > 42 µM (inactive).
In the case of CCCCC(=O)Nc1cc(OC)c(NC(=O)C2CCCCC2)cc1OC, the AC50 is reported as > 42 µM (inactive).
For Cn1cc(C(=O)N2CCCC(Nc3ccc(F)cc3)C2)c2ccccc21 (stereo not given), the AC50 was > 42 µM (inactive).
COc1ccc(/C=N\NC(=O)c2cc(OCC(F)(F)F)ccc2OCC(F)(F)F)cc1 was tested, and the AC50 was > 42 µM (inactive).
For COc1ccc(-c2noc(CSc3nc(-c4ccccc4)cc(=O)[nH]3)n2)cc1OC, the AC50 was > 42 µM (inactive).
CCOC(=O)CNC(=O)c1c(C)nn(C)c1Cl was tested, and the AC50 was > 42 µM (inactive).
In the case of CC1(C)CC(=O)C(C(=O)c2ccccc2)C(=O)C1Cl (stereo not given), the AC50 is reported as > 42 µM (inactive).
For Cc1ccccc1C(=O)/C=C1\NC(=O)CS1, the AC50 was > 21 µM (inactive).
For CN(C)S(=O)(=O)c1cccc(NC(=O)C(c2ccccc2)c2ccccc2)c1, the AC50 was > 42 µM (inactive).
O=C(Cc1ccc(Cl)cc1Cl)OCC(=O)c1ccc[nH]1 was tested, and the AC50 was > 42 µM (inactive).
For Cn1cc(Br)c(C(=O)Nc2nccs2)n1, the AC50 was > 42 µM (inactive).
CC1CC(C)(C)NC(=S)N1CC(=O)NCc1ccc(F)cc1 (stereo not given) was tested, and the AC50 was > 42 µM (inactive).
In the case of CNC(=O)c1ccccc1S(=O)c1ccccc1COC(C)=O (stereo not given), the AC50 is reported as > 42 µM (inactive).
In the case of CS(=O)(=O)N(CC(=O)Nc1ccccc1C(=O)N1CCCC1)c1ccc2c(c1)OCO2, the AC50 is reported as > 42 µM (inactive).
In the case of CCCC(=O)Oc1c(S(=O)(=O)c2ccc(C)cc2)c(C)nn1C(C)(C)C, the AC50 is reported as > 42 µM (inactive).
O=C(NCCN1CCOCC1)Nc1ccc(Cl)cc1Cl was tested, and the AC50 was > 42 µM (inactive).
With CCOC(=O)c1cc2c(ccn2-c2ccc(F)cc2)n1CC(=O)N1CCN(C(=O)c2ccco2)CC1 the AC50 was > 42 µM (inactive).
Work on O=[N+]([O-])c1cc([N+](=O)[O-])c2cc3ccccc3nc2c1 yielded an AC50 of 2.63 µM.
For C=C(C)Cn1c(SCC(=O)N/N=C/c2ccccc2OCC(=O)O)nnc1-c1ccc(Br)cc1, the AC50 was > 42 µM (inactive).
For CC(C)C1=CC(=Nc2ccc(S(N)(=O)=O)cc2)C=C(C(C)C)C1=O, the AC50 was > 42 µM (inactive).
For CCOc1cc(S(=O)(=O)NCc2ccc3c(c2)OCO3)c(C)cc1C, the AC50 was > 42 µM (inactive).
With CCC(C)[C@H]1COCCS(=O)(=O)N1Cc1ccc(C)cc1 (stereo not given in full) the AC50 was > 42 µM (inactive).
O=c1c2ccccc2nc(COc2ccccc2)n1/N=C/c1cn[nH]c1-c1ccccc1 was tested, and the AC50 was > 42 µM (inactive).
For O=c1cc(COc2ncnc3ccccc23)nc2sccn12, the AC50 was > 42 µM (inactive).
CCOc1ccccc1CN1CCNC(=O)C1CC(=O)NCCN1CCOC1=O (stereo not given) was tested, and the AC50 was > 42 µM (inactive).
In the case of Cc1n[nH]c(=O)nc1NCc1ccc(Cl)cc1, the AC50 is reported as > 42 µM (inactive).
In the case of CN1C(=O)C(=Cc2ccc(N3CCCCC3)o2)C(=O)N(C)C1=S, the AC50 is reported as > 42 µM (inactive).
With Cc1cc2ncc(C(=O)N=CN(C)C)cn2n1 the AC50 was > 42 µM (inactive).
With Cn1nc(C(C)(C)C)c([N+](=O)[O-])c1C(=O)Nc1ccccc1 the AC50 was > 42 µM (inactive).
In the case of CCOC(=O)c1ccc(NC(=S)NCCCN2CCOCC2)cc1, the AC50 is reported as > 110 µM (inactive).
For N#CC(C#N)=CN=c1ccn(Cc2ccc(Cl)cc2Cl)cc1, the AC50 was > 42 µM (inactive).
CCNCc1nc2cc(Cl)ccc2c(=O)[nH]1 was tested, and the AC50 was > 42 µM (inactive).
In the case of Cc1cc(C)c(OCC(=O)N/N=C/c2ccco2)c(C)c1, the AC50 is reported as > 42 µM (inactive).
C[C@@]12C(=O)Nc3ccc(F)cc3C(=O)N1[C@H]1c3ccccc3OC[C@@H]1[C@@H]2c1ccccc1 was tested, and the AC50 was 3.24 µM.
Compound COC(=O)C1CN(C#N)N(c2ccc(Cl)cc2)C12c1ccccc1-c1ccccc12 (stereo not given) has an AC50 of 0.74 µM.
In the case of Cc1[nH]c(C)c(S(=O)(=O)NCC(C)c2ccccc2)c1C(=O)N1CCCCC1 (stereo not given), the AC50 is reported as > 42 µM (inactive).
With O=C(OCC(=O)N1CCN(c2ccccc2)CC1)c1nc(Cl)ccc1Cl the AC50 was > 42 µM (inactive).
For CS(=O)(=O)N(CCc1ccccc1)CC(=O)NCc1cccnc1, the AC50 was > 42 µM (inactive).
Cc1c(C(=O)NC(C)C)oc2c1-c1[nH]ncc1CC2 was tested, and the AC50 was > 42 µM (inactive).
For Cc1ccc(S(=O)(=O)N2CCOCC2)cc1NC(=O)COC(=O)CCC(=O)c1cccs1, the AC50 was > 42 µM (inactive).
In the case of COc1ccccc1C(=O)NC(=O)COC(=O)Cc1ccccc1[N+](=O)[O-], the AC50 is reported as > 42 µM (inactive).
With CCOc1ccccc1Nc1nnc(SCc2nnc(-c3cc(OC)c(OC)c(OC)c3)o2)s1 the AC50 was > 42 µM (inactive).
For N#Cc1cccc(NC(=O)CSc2n[nH]c(=O)[nH]c2=O)c1, the AC50 was > 42 µM (inactive).
CNC(=O)Nc1cc(NC(=O)NC)cc(C(F)(F)F)c1 was tested, and the AC50 was > 42 µM (inactive).
In the case of CCN(CC)c1ncnc2ccc(Br)cc12, the AC50 is reported as > 42 µM (inactive).
COc1ccc(NC(=O)C(c2ccccc2)N2CCN(c3ccccn3)CC2)cc1Cl (stereo not given) was tested, and the AC50 was > 42 µM (inactive).
CC1CC(N(C(=O)c2ccccc2Cl)c2ccccc2)c2ccccc2N1 (stereo not given) was tested, and the AC50 was > 42 µM (inactive).
With O=C(Nc1ncccn1)c1ccc(C(F)(F)F)cc1 the AC50 was > 42 µM (inactive).
In the case of CC(=O)c1ccccc1C(=O)N1CCCC(N2CCN(Cc3ccc4c(c3)OCO4)CC2)C1 (stereo not given), the AC50 is reported as > 42 µM (inactive).
CCOC(=O)C1(c2ccccc2)CCN(CCC(=O)Nc2ccccc2OC)CC1 was tested, and the AC50 was > 42 µM (inactive).
For CC(C)(C)CC(=O)Nc1cc(S(=O)(=O)N2CCOCC2)ccc1N1CCCC1, the AC50 was > 42 µM (inactive).
In the case of Cc1ccc(/C=N/NC(=O)NC23CC4CC(CC(C4)C2)C3)o1, the AC50 is reported as > 42 µM (inactive).
In the case of CCOC(=O)C1=C[C@]2(CC)CCCN3CCc4c(n1c1ccccc41)[C@@H]32, the AC50 is reported as > 42 µM (inactive).
For CCCCCCCCc1nc(SCC(C)=O)n[nH]1, the AC50 was > 42 µM (inactive).
In the case of Cc1ccc(S(=O)(=O)N2CCOCC2)cc1NC(=O)COC(=O)CNC(=O)c1ccccc1, the AC50 is reported as > 42 µM (inactive).
For CN(C)CCN(Cc1ccc(Cl)cc1)c1ccccn1, the AC50 was > 42 µM (inactive).
In the case of CC(C)C(NC(=S)Nc1ccccc1)C(=O)O (stereo not given), the AC50 is reported as > 42 µM (inactive).
